Converted amounts (≈) assume the structure as drawn. Like-named read-outs stand apart in the source and are kept apart here.
Legend:
[1] = test system: Gram-positive Bacteria; type: cell-based
[2] = test system: Bacillus cereus 2; assay: microbe, parasite or virus in culture; type: cell-based; conditions: 37° C., 24 h, read-out: Minimum Inhibitory Concentration, MIC
[3] = test system: Bacillus cereus 246; assay: microbe, parasite or virus in culture; type: cell-based; conditions: 37° C., 24 h, read-out: Minimum Inhibitory Concentration, MIC
[4] = test system: Bacillus subtilis 82; assay: microbe, parasite or virus in culture; type: cell-based; conditions: 37° C., 24 h, read-out: Minimum Inhibitory Concentration, MIC
[5] = test system: Bacillus subtilis 168; assay: microbe, parasite or virus in culture; type: cell-based; conditions: 37° C., 24 h, read-out: Minimum Inhibitory Concentration, MIC
[6] = test system: Enterococcus faecalis 29212; assay: microbe, parasite or virus in culture; type: cell-based; conditions: 37° C., 24 h, read-out: Minimum Inhibitory Concentration, MIC
[7] = test system: Enterococcus faecalis 51299; assay: microbe, parasite or virus in culture; type: cell-based; conditions: Enterococcus faecalis, 51299, 24 h, read-out: Minimum Inhibitory Concentration, MIC
[8] = test system: Enterococcus faecalis 19433; assay: microbe, parasite or virus in culture; type: cell-based; conditions: 37° C., 24 h, read-out: Minimum Inhibitory Concentration, MIC
[9] = test system: Enterococcus faecalis F2518 (VRE); assay: microbe, parasite or virus in culture; type: cell-based; conditions: 24 h, read-out: Minimum Inhibitory Concentration, MIC
[10] = test system: Enterococcus fecal F631 (VRE); assay: organism not typed; type: cell-based; conditions: 24 h, read-out: Minimum Inhibitory Concentration, MIC
[11] = test system: Enterococcus faecalis 1513 (VRE); assay: microbe, parasite or virus in culture; type: cell-based; conditions: 24 h, read-out: Minimum Inhibitory Concentration, MIC
[12] = test system: Enterococcus faecalis 583 (VRE); assay: microbe, parasite or virus in culture; type: cell-based; conditions: 24 h, read-out: Minimum Inhibitory Concentration, MIC
[13] = test system: Staphylococcus aureus 29231; assay: microbe, parasite or virus in culture; type: cell-based; conditions: 37° C., 24 h, read-out: Minimum Inhibitory Concentration, MIC
[14] = test system: Staphylococcus aureus 43300 (MRSA); assay: microbe, parasite or virus in culture; type: cell-based; conditions: 24 h, read-out: Minimum Inhibitory Concentration, MIC
[15] = test system: Staphylococcus aureus 703 (MRSA); assay: microbe, parasite or virus in culture; type: cell-based; conditions: 24 h, read-out: Minimum Inhibitory Concentration, MIC
[16] = test system: Staphylococcus aureus 704 (MRSA); assay: microbe, parasite or virus in culture; type: cell-based; conditions: 24 h, read-out: Minimum Inhibitory Concentration, MIC
[17] = test system: Staphylococcus aureus 705 (MRSA); assay: microbe, parasite or virus in culture; type: cell-based; conditions: 24 h, read-out: Minimum Inhibitory Concentration, MIC
[18] = test system: Streptococcus pneumoniae 6303 (PRSP); assay: microbe, parasite or virus in culture; type: cell-based; conditions: 24 h, read-out: Minimum Inhibitory Concentration, MIC
[19] = test system: Streptococcus pneumoniae 62; assay: microbe, parasite or virus in culture; type: cell-based; conditions: 37° C., 24 h, read-out: Minimum Inhibitory Concentration, MIC
[20] = test system: Streptococcus pneumoniae 6301; assay: microbe, parasite or virus in culture; type: cell-based; conditions: 37° C., 24 h, read-out: Minimum Inhibitory Concentration, MIC
[21] = test system: Streptococcus pneumoniae M2; assay: microbe, parasite or virus in culture; type: cell-based; conditions: 37° C., 24 h, read-out: Minimum Inhibitory Concentration, MIC
[22] = test system: Pyogenic Streptococcus; assay: microbe, parasite or virus in culture; type: cell-based; conditions: 37° C., 24 h, read-out: Minimum Inhibitory Concentration, MIC
[23] = test system: Streptococcus agalactiae B; assay: microbe, parasite or virus in culture; type: cell-based; conditions: 37° C., 24 h, read-out: Minimum Inhibitory Concentration, MIC
[24] = test system: green Streptococcus 1009; assay: microbe, parasite or virus in culture; type: cell-based; conditions: 37° C., 24 h, read-out: Minimum Inhibitory Concentration, MIC
[25] = test system: Streptococcus bovis 10035; assay: microbe, parasite or virus in culture; type: cell-based; conditions: Streptococcus equinus, 37° C., 24 h, read-out: Minimum Inhibitory Concentration, MIC
[26] = test system: Streptococcus 10342; assay: MIC broth microdilution; type: cell-based; conditions: 37° C., 24 h, read-out: Minimum Inhibitory Concentration, MIC
[27] = test system: Streptococcus pneumoniae 10351; assay: microbe, parasite or virus in culture; type: cell-based; conditions: 37° C., 24 h, read-out: Minimum Inhibitory Concentration, MIC
[28] = test system: Bacillus anthracis 1; assay: microbe, parasite or virus in culture; type: cell-based; conditions: Bacillus anthracis, 1, 24 h, read-out: Minimum Inhibitory Concentration, MIC
[29] = test system: Corynebacterium diphtheriae; assay: microbe, parasite or virus in culture; type: cell-based; conditions: 37° C., 24 h, read-out: Minimum Inhibitory Concentration, MIC
[30] = test system: Clostridium tetani; assay: microbe, parasite or virus in culture; type: cell-based; conditions: 24 h
[31] = test system: Clostridium perfringens; assay: microbe, parasite or virus in culture; type: cell-based; conditions: 24 h, read-out: Minimum Inhibitory Concentration, MIC
[32] = test system: Oral candidiasis; assay: MIC broth microdilution; type: cell-based; conditions: Microorganism 32, Oral candidiasis; 37° C., 24 h; read-out: Minimum Inhibitory Concentration, MIC
[33] = MIC broth microdilution; type: cell-based; conditions: Microorganism 33, Dermatophytosis; 37° C., 24 h; read-out: Minimum Inhibitory Concentration, MIC
[34] = test system: MRSA 2152; assay: Antibacterial studies in vivo, survival of mice infected with MRSA 2152; conditions: dose mg/kg: ciprofloxacin 20, 3: 30, 7: 40, 21: 50, 33: 25, 70: 70
[35] = read-out: Minimum Inhibitory Concentration, MIC, Microorganism 29, Clostridium tetani, 37° C.
[36] = read-out: Minimum Inhibitory Concentration, MIC, Microorganism 30, Clostridium tetani (second line of that name), 37° C.

Cc1nn2c(=O)cc(-c3ccc(C#N)cc3)[nH]c2c1-c1ccc(C(F)(F)F)cc1 [Compound 3]
inhibition of growth (conclusion from MICs) ([1]; Enterococcus faecalis (VRE), Staphylococcus aureus (MRSA), Streptococcus pneumoniae 6303 (PRSP), Bacillus cereus, Bacillus subtilis, Enterococcus faecalis, Staphylococcus aureus, Streptococcus pneumoniae, Streptococcus agalactiae B and streptococci 4): significantly inhibited the growth
MIC [2]: 2.5 µM (≈ 0.986 µg/mL)
MIC [3]: 0.53 µM (≈ 0.209 µg/mL)
MIC [4]: 5 µM (≈ 1.97 µg/mL)
MIC [5]: 2.5 µM (≈ 0.986 µg/mL)
MIC [6]: 0.23 µM (≈ 0.0907 µg/mL)
MIC [7]: 0.55 µM (≈ 0.217 µg/mL)
MIC [8]: 0.42 µM (≈ 0.166 µg/mL)
MIC [9]: 0.48 µM (≈ 0.189 µg/mL)
MIC [10]: 0.33 µM (≈ 0.13 µg/mL)
MIC [11]: 1.3 µM (≈ 0.513 µg/mL)
MIC [12]: 0.63 µM (≈ 0.248 µg/mL)
MIC [13]: 0.22 µM (≈ 0.0868 µg/mL)
MIC [14]: 0.36 µM (≈ 0.142 µg/mL)
MIC [15]: 1.25 µM (≈ 0.493 µg/mL)
MIC [16]: 0.63 µM (≈ 0.248 µg/mL)
MIC [17]: 0.46 µM (≈ 0.181 µg/mL)
MIC [18]: 0.32 µM (≈ 0.126 µg/mL)
MIC [19]: 10.5 µM (≈ 4.14 µg/mL)
MIC [20]: 0.3 µM (≈ 0.118 µg/mL)
MIC [21]: 0.04 µM (≈ 0.0158 µg/mL)
MIC [22]: 0.12 µM (≈ 0.0473 µg/mL)
MIC [23]: 0.16 µM (≈ 0.0631 µg/mL)
MIC [24]: 0.31 µM (≈ 0.122 µg/mL)
MIC [25]: 2.01 µM (≈ 0.793 µg/mL)
MIC [26]: 1.33 µM (≈ 0.524 µg/mL)
MIC [27]: 1.25 µM (≈ 0.493 µg/mL)
MIC [28]: 25.6 µM (≈ 10.1 µg/mL)
MIC [29]: 62.1 µM (≈ 24.5 µg/mL)
MIC [30, 35]: 50.3 µM (≈ 19.8 µg/mL)
MIC [30, 36]: 23.2 µM (≈ 9.15 µg/mL)
MIC [31]: 55.3 µM (≈ 21.8 µg/mL)
MIC [32]: 53.1 µM (≈ 20.9 µg/mL)
MIC [33]: 59.1 µM (≈ 23.3 µg/mL)
Survival rate (%) (life prolongation rate) ([34]; (survival days of test group − blank group)/blank group ×100%, MRSA 2152 mice, tail vein): 216.8%
Survival ([34]; mice inoculated intraperitoneally with MRSA 2152, test compound by tail vein, repeated after six hours, saline 1.3 days): 4.3 days

CCc1nn2c(=O)cc(-c3ccc(C#N)cc3)[nH]c2c1-c1ccc(Cl)cc1Cl [Compound 5]
inhibition of growth (conclusion from MICs) ([1]; the majority of Bacillus cereus, Bacillus subtilis and Enterococcus faecalis): significantly inhibited the growth
MIC [2]: 10.5 µM (≈ 4.3 µg/mL)
MIC [3]: 0.3 µM (≈ 0.123 µg/mL)
MIC [4]: 0.04 µM (≈ 0.0164 µg/mL)
MIC [5]: 0.12 µM (≈ 0.0491 µg/mL)
MIC [6]: 0.16 µM (≈ 0.0655 µg/mL)
MIC [7]: 0.3 µM (≈ 0.123 µg/mL)
MIC [8]: 2.01 µM (≈ 0.823 µg/mL)
MIC [9]: 31.3 µM (≈ 12.8 µg/mL)
MIC [10]: 19.2 µM (≈ 7.86 µg/mL)
MIC [11]: 35.2 µM (≈ 14.4 µg/mL)
MIC [12]: 32.1 µM (≈ 13.1 µg/mL)
MIC [13]: 5.31 µM (≈ 2.17 µg/mL)
MIC [14]: 213 µM (≈ 87.3 µg/mL)
MIC [15]: 135 µM (≈ 55.4 µg/mL)
MIC [16]: 150 µM (≈ 61.5 µg/mL)
MIC [17]: 123 µM (≈ 50.4 µg/mL)
MIC [18]: 105 µM (≈ 43.1 µg/mL)
MIC [19]: 10.5 µM (≈ 4.3 µg/mL)
MIC [20]: 0.3 µM (≈ 0.123 µg/mL)
MIC [21]: 0.04 µM (≈ 0.0164 µg/mL)
MIC [22]: 20.1 µM (≈ 8.23 µg/mL)
MIC [23]: 0.16 µM (≈ 0.0655 µg/mL)
MIC [24]: 0.31 µM (≈ 0.127 µg/mL)
MIC [25]: 2.01 µM (≈ 0.823 µg/mL)
MIC [26]: 1.33 µM (≈ 0.544 µg/mL)
MIC [27]: 1.25 µM (≈ 0.512 µg/mL)
MIC [28]: 52.4 µM (≈ 21.4 µg/mL)
MIC [29]: 26.1 µM (≈ 10.7 µg/mL)
MIC [30, 35]: 50.3 µM (≈ 20.6 µg/mL)
MIC [30, 36]: 23.2 µM (≈ 9.5 µg/mL)
MIC [31]: 55.3 µM (≈ 22.6 µg/mL)
MIC [32]: 52.1 µM (≈ 21.3 µg/mL)
MIC [33]: 33.5 µM (≈ 13.7 µg/mL)

Source: patent US20120178915A1, “PYRIMIDINE DERIVATIVES AND ANALOGS, PREPARATION METHOD AND USE THEREOF” (priority 2009, published 2012)
